This note sets out measurements from patent publication US20020061839A1, “Serine peptidase modulators” (priority 1998, published 2002).

Entries after “also recorded” stand apart in the source; their conditions may differ.

One series concerns the target T1, Prolyl oligopeptidase (Homo sapiens, UniProt P48147).
T1 construct: Prolyl oligopeptidase was purified from human platelets; from tissue; host or cells: human platelets
T1 sequence (P48147 1-710): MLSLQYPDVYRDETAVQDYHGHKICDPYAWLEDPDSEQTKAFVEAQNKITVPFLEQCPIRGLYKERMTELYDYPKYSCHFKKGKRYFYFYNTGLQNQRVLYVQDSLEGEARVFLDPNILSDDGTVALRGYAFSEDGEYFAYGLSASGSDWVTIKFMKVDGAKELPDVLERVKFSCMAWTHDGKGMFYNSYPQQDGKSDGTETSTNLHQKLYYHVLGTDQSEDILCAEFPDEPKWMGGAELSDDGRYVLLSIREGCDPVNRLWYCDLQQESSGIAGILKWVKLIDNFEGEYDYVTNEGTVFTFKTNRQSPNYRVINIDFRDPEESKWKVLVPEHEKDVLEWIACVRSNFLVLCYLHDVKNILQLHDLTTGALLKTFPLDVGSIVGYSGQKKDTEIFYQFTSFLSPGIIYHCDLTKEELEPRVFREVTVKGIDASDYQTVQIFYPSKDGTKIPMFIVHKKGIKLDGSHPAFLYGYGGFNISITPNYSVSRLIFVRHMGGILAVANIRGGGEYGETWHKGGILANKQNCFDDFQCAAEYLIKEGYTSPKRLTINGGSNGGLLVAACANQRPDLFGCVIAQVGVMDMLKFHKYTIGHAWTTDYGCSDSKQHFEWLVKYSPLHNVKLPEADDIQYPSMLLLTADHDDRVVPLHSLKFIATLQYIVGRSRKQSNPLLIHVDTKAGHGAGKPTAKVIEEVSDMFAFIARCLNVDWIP
The series can be described thus: Inhibition of prolyl oligopeptidase (PO), Z-Gly-Pro-AMC substrate. Format: biochemical. Particulars: PO from human platelets, 20 min at 37° C. As to the method:
Prolyl oligopeptidase was purified from human platelets and the enzyme activity was measured using Z—Gly—Pro—AMC (4.4 mM) as the substrate in a K-phosphate buffer 100 mM, pH 7.5 containing 1 EM EDTA, 1 mM dithiothreitol and 1 mM NaN3. The incubation was carried out during 20 min at 37° C. The reaction was stopped by the addition of 5 volumes 1.5 M acetic acid. Fluorescence was measured at 370 and 440 nm as excitation and emission wavelengths respectively. The inhibitors were added at concentrations varying between 1 μM and 1 mM.

Series [1] can be described thus: Systemic and local toxicity in rats. As to conditions: for acute systemic or local toxicity: daily subcutaneous injection of 50 mg/kg (initial dose 100 mg/kg). Format: in vivo. As for the experimental part:
They received standard diet and water ad lib. […] Blood was sampled from the central ear artery. Rats and mice were injected subcutaneously or intraperitoneally.

For series [2], the system named is human peripheral blood mononuclear cells (PBMC). Description: In vitro cytotoxicity in PBMC, trypan blue exclusion. The class given is cell-based. As to conditions: freshly isolated mononuclear cells or phytohemagglutinin stimulated blasts, concentrations up to 100 μM. As to the method: Peripheral blood mononuclear cells were isolated from buffy coats (obtained from the blood transfusion center of Antwerp). After dilution (¼) in phosphate buffer saline (PBS), cells were layered onto Ficoll-Hypaque density gradient (Pharmacia, Uppsala, Sweden) and centrifuged at room temperature at 550×g during 20 min. The interfaces were collected and washed 3 times in RPMI-1640. Finally the cells were resuspended at 1×10^6 cells/mL in RPMI-1640 containing 10% heat-inactivated foetal calf serum, and antibiotics (penicillin/streptomycin) (Gibco). These freshly isolated cells were used immediately for inhibitor studies or first stimulated with phytohaemagglutinin (Murex diagnostics) at 1 μg/mL during 3 days at 37° C. in a 5% CO2 humidified incubator. Inhibitor (stock solution at −80° C. in phosphate buffer, diluted ex tempore in RPMI-1640) or vehicle alone was added to the cells (5×10^6/test) at different concentrations. After overnight incubation at 37° C., an aliquot was taken for cytotoxicity evaluation by 0.4% trypan blue exclusion. The remaining cells were washed 3 times in PBS and the final cell pellet was solubilised in 200 μL PBS containing 1% v/v Triton X-100 and 100 KIU/mL aprotinin (Bayer) and centrifuged during 10 min at 20000×g. Supernatants were used immediately for enzyme assay and protein determination by the Bradford micro-assay. Specific activities (U/g protein) are compared and the % inhibition is given toward control samples without inhibitor.

A short description of the next series: in vitro. As to conditions: human, plasma.
Series [3] can be described thus: Side effects in rabbits after intravenous injection. Format: in vivo. Particulars: single intravenous injection of 0.2 mg/kg. As for the experimental part:
[…]. They received standard diet and water ad lib. […] Blood was sampled from the central ear artery. Rats and mice were injected subcutaneously or intraperitoneally.

Series [4] can be described thus: Graft acceptance upon alloantigen challenge. The class given is in vivo, rats. Particulars: monotherapy.
For a further series, the target named is Dipeptidyl peptidase II. Particulars: DPP II semi-purified from rabbit kidney, pH 5.5, 20 minutes at 37° C.

Description for Dipeptidyl peptidase II: After incubation during 20 minutes at 37° C., the reaction was stopped by the addition of 10 fold excess sodium-acetate pH 3.6.

As to `C[C@H](NC(=O)OCc1ccccc1)C(=O)Nc1ccc(OP(=O)(Oc2ccc(NC(=O)[C@H](C)NC(=O)OCc3ccccc3)cc2)C2CCCN2C(=O)[C@@H]2CCCN2C(=O)OCc2ccccc2)cc1` (mixture of isomers) [10j, Di[4-(N-benzyloxycarbonyl-(S)-alanylamino)phenyl]-1-(benzyloxycarbonyl-(S)-prolyl)pyrrolidine-2(R,S)-phosphonate], the melting point (as a rule, the temperature of the solid-liquid transition) fell in the range of 200 to 203 °C. On Prolyl oligopeptidase, the IC50 – broadly, the midpoint of a concentration-inhibition curve – was over 500 µM.

As for `O=C1CC[C@@H](C(=O)Nc2ccc(OP(=O)(Oc3ccc(NC(=O)[C@@H]4CCC(=O)N4)cc3)C3CCCN3C(=O)[C@@H]3CCCN3C(=O)OCc3ccccc3)cc2)N1` (mixture of isomers) [10k, Di[4-((S)-pyroglutamylamino)phenyl]-1-(benzyloxycarbonyl-(S)-prolyl)pyrrolidine-2(R,S)-phosphonate], the melting point is 170 °C (dec.). The IC50 against Prolyl oligopeptidase was 9 µM.

Take `CC(=O)Nc1ccc(OP(=O)(Oc2ccc(NC(C)=O)cc2)C2CCCN2C(=O)[C@@H]2CCCN2)cc1.Cl` (mixture of isomers) [11e, Di(4-acetamidophenyl) 1-((S)-prolyl)pyrrolidine-2(R,S)-phosphonate hydrochloride]: the “acute systemic or local toxicity” value in series [1] (rats, hydrochloride) is “without any sign of acute systemic or local toxicity; also recorded: no acute systemic or local toxicity”. In series [2] (hydrochloride), the cytotoxicity entry is “no cytotoxicity; also recorded: did not show cytotoxicity”.

`CCOC(=O)CNC(=O)c1ccc(OP(=O)(Oc2ccc(C(=O)NCC(=O)OCC)cc2)C2CCCN2C(=O)[C@@H]2CCCN2)cc1` (mixture of isomers) [11n, Di{4-[(ethoxycarbonyl)methylaminocarbonyl]phenyl}1-((S)-prolyl)pyrrolidine-2(R,S)-phosphonate]: the half-life (commonly the time needed for the level to fall by half in the phase considered) at 1 mM in “in vitro” came to 0.583 ± 0.0333 h. The side effects entry in series [3] is on record as “without side effects”. Besides, in series [1] (rats), the “acute systemic or local toxicity” value is listed as “without any sign of acute systemic or local toxicity; also recorded: no acute systemic or local toxicity”. The cytotoxicity result in series [2] is given as “did not show cytotoxicity; also recorded: no cytotoxicity”.

`O=C([C@@H]1CCCN1)N1CCCC1P(=O)(Oc1ccccc1)Oc1ccccc1` (mixture of isomers) [compound 5, diphenyl 1-(S)-prolyl-pyrrolidine-2-(R,S)-phosphonate] had a half-life at 1 mM in the series “in vitro” of 4.17 ± 0.167 h. Moreover, the graft acceptance result in series [4] is on record as “significantly prolonged graft acceptance”. Besides, in series [1] (monotherapy), the “systemic toxicity and local ulcerations” value was “occasionally also caused systemic toxicity and more often local ulcerations”. Moreover, the systemic toxicity entry in series [1] (rats, intravenously) was “adequate inhibition could not be reached without severe systemic toxicity”.

For the compound `Cl.O=C([C@@H]1CCCN1)N1CCC[C@H]1P(=O)(Oc1ccccc1)Oc1ccccc1` [11a (R), Diphenyl 1-((S)-prolyl)pyrrolidine-2(R)-phosphonate hydrochloride], the half-life at 1 mM in “in vitro” is 5 ± 0.5 h. Moreover, the cytotoxicity result in series [2] is “no satisfactory inhibition of DPP IV activity could be reached without cytotoxic effects”.

In the case of `CC(NC(=O)[C@@H](N)Cc1ccccc1)P(=O)(Oc1ccccc1)Oc1ccccc1` (stereo partly drawn) [Phe-AlaP(OPh)2, Diphenyl 1(R,S)-L-phenylalanyl aminoethane phosphonate], the concentration for half-maximal inhibition (IC50) at Dipeptidyl peptidase II was 800 µM.

Compound `CC(NC(=O)[C@@H]1CCCN1)P(=O)(Oc1ccccc1)Oc1ccccc1` (stereo partly drawn) [Pro-AlaP(OPh)2, diphenyl 1(R,S)-L-prolyl aminoethane phosphonate] displayed a half-inhibitory concentration (IC50) against Dipeptidyl peptidase II of 1500 µM. Compared with the last compound, the IC50 is about 1.9-fold higher.
